Target: T1, sGC (Homo sapiens, UniProt Q02108+Q02153)
T1 construct: Preparation of LNCap Cells; endogenous in cells; host or cells: LNCaP cells (14th generation), no transfection described
T1 sequence (Q02153 1-619): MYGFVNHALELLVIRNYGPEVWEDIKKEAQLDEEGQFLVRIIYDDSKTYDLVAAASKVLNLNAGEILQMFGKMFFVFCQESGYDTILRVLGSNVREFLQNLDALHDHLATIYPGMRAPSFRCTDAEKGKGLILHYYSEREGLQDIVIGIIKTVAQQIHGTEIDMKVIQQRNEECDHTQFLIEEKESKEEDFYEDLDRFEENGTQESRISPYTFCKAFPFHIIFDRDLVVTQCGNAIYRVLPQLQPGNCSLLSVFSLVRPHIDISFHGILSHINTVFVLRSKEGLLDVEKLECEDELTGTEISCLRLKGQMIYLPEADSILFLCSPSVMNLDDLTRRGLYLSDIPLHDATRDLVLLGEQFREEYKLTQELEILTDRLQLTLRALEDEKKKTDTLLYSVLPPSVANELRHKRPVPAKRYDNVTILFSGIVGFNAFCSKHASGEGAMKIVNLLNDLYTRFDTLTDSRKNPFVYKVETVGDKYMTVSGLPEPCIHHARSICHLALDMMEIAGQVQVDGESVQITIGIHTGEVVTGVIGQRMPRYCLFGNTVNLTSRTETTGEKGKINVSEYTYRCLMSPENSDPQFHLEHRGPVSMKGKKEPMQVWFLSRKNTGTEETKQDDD
T1 sequence (Q02108 1-690): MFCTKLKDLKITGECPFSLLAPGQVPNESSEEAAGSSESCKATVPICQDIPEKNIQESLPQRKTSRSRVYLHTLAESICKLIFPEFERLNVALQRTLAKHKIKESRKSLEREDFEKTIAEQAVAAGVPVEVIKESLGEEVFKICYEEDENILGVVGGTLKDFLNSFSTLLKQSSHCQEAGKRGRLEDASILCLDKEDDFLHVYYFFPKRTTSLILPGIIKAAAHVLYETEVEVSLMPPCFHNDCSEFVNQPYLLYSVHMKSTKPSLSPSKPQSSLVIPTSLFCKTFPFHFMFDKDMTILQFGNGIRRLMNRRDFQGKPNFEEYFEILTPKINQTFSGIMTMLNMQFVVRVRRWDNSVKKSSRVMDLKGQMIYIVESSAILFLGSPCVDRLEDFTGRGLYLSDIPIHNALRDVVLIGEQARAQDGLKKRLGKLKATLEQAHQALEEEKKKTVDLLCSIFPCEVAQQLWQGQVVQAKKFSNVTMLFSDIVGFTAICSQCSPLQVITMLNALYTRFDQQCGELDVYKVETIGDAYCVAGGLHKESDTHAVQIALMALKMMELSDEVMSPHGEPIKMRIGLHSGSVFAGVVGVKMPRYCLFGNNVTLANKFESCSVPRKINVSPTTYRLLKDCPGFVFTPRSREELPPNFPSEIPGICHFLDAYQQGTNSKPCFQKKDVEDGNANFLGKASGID
Assay: lnCap cell-based cGMP expression assay (stimulating activity for sGC)
Conditions: with DETA-NO, 37° C. 30 min, HTRF cGMP
Method: I. lnCap Cell-Based cGMP Expression Assay
1) Preparation of Solutions
10% BSA (Bovine Serum Albumin)
10 g of BSA was dissolved in 100 mL of double distilled water (ddH2O) to give 10% BSA.
5 mM DETA (Diethylenetriamine)-NO
10 mg of DETA-NO was weighed out and dissolved in 12.2 mL of double distilled water (ddH2O) to give 5 mM DETA-NO, which was aliquoted and cryopreserved in a freezer at −20° C.
a) To 1 mL of a lysis buffer was added 50 μL of cGMP-D2 (D2-labeled cyclic guanosine monophosphate), and the mixture was well mixed.
b) To 1 mL of a lysis buffer was added 50 μL of anti-cGMP cryptate (Eu^3+ cryptate-labeled anti-cyclic guanosine monophosphate antibody), and the mixture was well mixed.
(1) The compounds were diluted to 5 mM with DMSO. 10 μL of each of the compounds was transferred to a shallow well plate for Echo.
(2) The compounds were gradiently diluted with Echo. Each of the compounds was diluted to obtain 10 concentration gradients, and 50 nL of each of the concentration gradients was added to a 384 microwell plate.
3) Preparation of LNCap Cells
(1) LNCap medium: RPMI1640+10% fetal bovine serum+1% […].
(2) Phosphate buffered saline, pancreatin and the medium used in the process of cell passaging were pre-heated in a water bath at 37° C.
(3) The cells (the 14th generation) were taken out of the 37° C., 5% CO2 incubator, and the old medium was pipetted off the culture flask.
(4) 5 mL of phosphate buffered saline was pipetted into the culture flask to rinse the cells, and then the liquid was discarded.
(5) 3 mL of pancreatin was pipetted into the culture flask. After the culture flask was shaken, the liquid was discarded, and the culture flask was placed in the incubator.
(6) After about 2 min the culture flask was taken out. […] The cell suspension was transferred to a 50 mL centrifuge tube.
(7) 0.7 mL of the cell suspension was pipetted into a counter cup and the cells were counted on a ViCell XR. The remaining cells were centrifuged at 1000 rpm for 5 min, and the supernatant was removed.
(8) The cells were washed by adding 10 mL of the washing buffer and centrifuged at 1000 rpm for 5 min, and the supernatant was removed.
(9) The assay buffer was added to adjust the cell concentration to 1.25×10^6/mL. The cells were added to the microwell plate at 8 μL/well.
4) Formulation and Addition of DETA-NO
(1) 10 μL of 5 mM DETA-NO was added to 1240 μL of the assay buffer and to 1657 μL of the assay buffer to give 40 μM DETA-NO and 30 μM DETA-NO, respectively.
(2) DETA-NO was transferred to the 384 microwell plate at 2 μL/well using Bravo.
(3) The mixtures were centrifuged at 1500 rpm for 5 min. The microwell plate was incubated at 37° C. for 30 min.
5) Preparation of cGMP Standard Curve
(1) 1 mM of the cGMP stock solution was diluted to 10 μM with the assay buffer. Then 4-fold gradient dilution was performed to obtain 11 concentration gradients.
(2) The cGMP dilutions were added to the microwell plate at 10 μL/well.
6) Addition of Detection Reagents and Plate Reading
(1) cGMP-D2 was transferred to the 384 microwell plate at 5 μL/well using Bravo. The mixtures were centrifuged at 1500 rpm for 1 min.
(2) The anti-cGMP cryptate was transferred to the 384 microwell plate at 5 μL/well using Bravo. The mixtures were centrifuged at 1500 rpm for 1 min.
(3) The plate was incubated at room temperature for 1 h.
(4) 665/615 was read using envision.
(1) cGMP standard curve: a standard curve was generated using Graphpad prism based on the cGMP concentrations and 665/615 ratios.
(2) Conversion of HTRF (homogeneous time-resolved fluorescence) ratios (665/615) to cGMP concentrations: in Graphpad prism, the HTRF ratios (665/615) were copied into the ratio column of the cGMP standard curve, and the “Log inhibitor vs response-variable slope” analysis was run with “interpolate” selected to convert the HTRF ratios (665/615) to cGMP concentrations. […]

CC12CCC(=O)Nc3nc(-c4nn(Cc5ccccc5F)c5ncc(F)cc45)nc(c31)NC2=O (stereo not shown) [Compound 019]
MEC: minimum effective concentration to stimulate cGMP production (three times greater than the basal value) in lnCap cells: 2.4 nM

Source: patent US20230257398A1, “PYRIMIDINE-BASED TRICYCLIC COMPOUND AND USE THEREOF” (Chia Tai Tianqing Pharmaceutical Group Co., Ltd., priority 2020, published 2023)
